Assay [1] relates to Naegleria fowleri trophozoites. The assay can be described thus: CellTiter-Glo 2.0 trophocidal assay, N. fowleri. The assay is classed as cell-based. The protocol: Pathogenic Naegleria fowleri (ATCC 30215), a clinical isolate obtained from a child in Adelaide, Australia, that died of PAM in 1969 was previously purchased from the American Type Culture Collection (ATCC). Trophozoites were routinely grown axenically at 34 °C in Nelson’s complete medium (NCM) in non-vented 75 cm^2 tissue culture flasks (Olympus, El Cajon, CA, USA), until the cells were 80–90% confluent. For sub-culturing, cells were placed on ice to detach the cells from the culture flasks. The cells were collected by centrifugation at 4000 rpm at 4 °C. Complete NCM media is produced by the addition of 10% FBS and 125 μg of penicillin/streptomycin antibiotics.
The trophocidal activity of compounds was assessed using the CellTiter-Glo 2.0 luminescent viability assay (Promega, Madison, WI, USA), as previously described. Trophozoites were routinely cultured as described above and only logarithmic trophozoites were used. In brief, B. mandrillaris, N. fowleri, or A. castellanii trophozoites cultured in their corresponding media were seeded at 16,000, 3000, or 1440 cells/well into white 96-well plates (Costar 3370), respectively. Initially all compounds were assessed in a single-point drug screen at 10 and 1 μM, as previously described. […] Control wells were supplemented with 0.1% (10 μM screening plate) or 0.01% (1 μM screening plate) DMSO, as the negative controls, or 12.5 μM of chlorhexidine, as the positive control. Following the single-point assays at 10 and 1 µM, we prioritized compounds for progression to IC50 determinations. […] We used this process to reduce the number of potential false positives. Drugs were cherry-picked, dissolved in the media specific to each parasite, and assessed in twofold serial dilutions from the highest concentration of 10 μM. All assays were incubated at each of the parasites’ representative growth temperatures, described above, for 72 h. At the 72 h time point, 25 μL of CellTiter-Glo 2.0 reagent was added to all wells of the 96-well plates using the Biomek NX^P automated workstation. The plates were protected from light and contents were mixed using an orbital shaker at 300 rpm at room temperature for 2 min to induce cell lysis. After shaking, the plates were equilibrated at room temperature for 10 min to stabilize the luminescent signal. The adenosine triphosphate (ATP) luminescent signal (relative light units; RLUs) was measured at 490 nm with a SpectraMax I3X plate reader (Molecular Devices, Sunnyvale, CA, USA). Drug inhibitory concentration (IC50) curves were generated using total ATP RLUs, where controls were calculated as the average of replicates using the Levenberg–Marquardt algorithm, using DMSO as the normalization control, as defined in Collaborative Drug Discovery Inc. (CDD) Vault (Burlingame, CA, USA). Values reported are from a minimum of two biological replicates with standard deviations.
(In ATP-based viability assays light output follows the ATP content of the culture.)

Assay [2] deals with A549 human lung carcinoma cells. The experiment in a line: MTS cytotoxicity counter-screen of reconfirmed hits. It counts as cell-based. The protocol: Cytotoxicity of the reconfirmed hits was determined by using the CellTiter 96® AQueous One Solution Cell Proliferation Assay (Promega, Madison, WI) on A549 human lung carcinoma cells. A549 cells were seeded at a concentration of 1.6 × 10^4 cells/mL in 96-well tissue culture plates (Corning, NY, USA), in the presence of serially diluted active hits against B. mandrillaris, N. fowleri, or A. castellanii. Positive control wells contained cells and media; negative control wells contained 0.1% DMSO. Cells were grown in F12K medium supplemented with 10% FBS and 1% gentamycin (all supplied from Fisher Scientific, Atlanta, GA, USA). The inhibitor concentration started at 10 µM and was diluted in doubling dilutions to assess cytotoxicity in comparison to the respective free-living amoeba. Total volume of each well was 100 µL and plates were incubated at 37 °C, 5% CO2 for 72 h. Next, 4 h before the time-point, 20 µL of MTS (Promega, Madison, WI, USA) was added to each well. Inhibition of A549 growth was assessed at the 72 h time-point measuring the optical density (OD) values at 490 nm using a SpectraMax I3X plate reader (Molecular Devices, Sunnyvale, CA, USA). Curve fitting using non-linear regression was carried out using the average of replicates and the Levenberg–Marquardt algorithm, using DMSO as the normalization control, as defined in CDD Vault (Burlingame, CA, USA).

The mark [3] stands for this setting: Naegleria fowleri, 72 h, CTG method, 72 h, duplicate twofold serial dilutions from 10 µM, mean ± SD; read-out: N. fowleri Mean IC50 (µM) ± SD.
[4] abbreviates: Homo sapiens, A549, MTS assay, 72 h, doubling dilutions from 10 µM, read-out: A549 Mean IC50.
Where [5] appears, read: CTG method, 72 h, duplicate twofold serial dilutions from 10 µM, mean ± SD; read-out: N. fowleri Mean IC50 (µM) ± SD.
Where [6] appears, read: MTS assay, 72 h, doubling dilutions from 10 µM, read-out: A549 Mean IC50.

Read-outs that look alike come from different tables or passages of the source.

As usually defined, the IC50 is the midpoint of a concentration-inhibition curve. In the case of `Cc1cc(C2CCCCC2)n(O)c(=O)c1` [Ciclopirox], the IC50 in assay [1] (setting [3]) was 7.5 ± 1.4 µM; in assay [2] (setting [4]), above 10 µM. Moreover, in assay [1] (SI = (IC50 A549)/(IC50 Amoeba)), the “Selectivity Index (A549 IC50/N. fowleri IC50)” value (shortened to “Selectivity Index”) is recorded as at least 1.33.
For `NC[C@H]1OB(O)c2c(OCCCO)cccc21` [Epetraborole], in that order: 2.6 ± 0.3 µM, above 10 µM and at least 3.85.
For `CN(C)[C@@H]1C(O)=C(C(N)=O)C(=O)[C@@]2(O)C(O)=C3C(=O)c4c(O)c(NC(=O)CN5CCCC5)cc(F)c4C[C@H]3C[C@@H]12` [Eravacycline], in that order: 2.75 ± 0.35 µM, above 10 µM and at least 3.64.
In the case of `CC[C@H]1OC(=O)[C@H](C)[C@@H](O[C@H]2C[C@@](C)(OC)[C@@H](O)[C@H](C)O2)[C@H](C)[C@@H](O[C@@H]2O[C@H](C)C[C@H](N(C)C)[C@H]2O)[C@](C)(O)C[C@@H](C)C(=O)[C@H](C)[C@@H](O)[C@]1(C)O` [Erythromycin], the IC50 in assay [1] (setting [3]) is 0.24 ± 0.02 µM; in assay [2] (setting [4]), above 10 µM. Besides, the figures for the “Selectivity Index” value in assay [1] (SI = (IC50 A549)/(IC50 Amoeba)) and in assay [1] (SI = (IC50 A549)/(IC50 Amoeba); listed as erythromycin) were at least 42.6 and at least 10, respectively. Also, the “potency against N. fowleri, in words” value in assay [1] (dose-response, CTG) was “nanomolar potency”.
Take `Nc1nc(F)nc2c1ncn2[C@@H]1O[C@H](CO)[C@@H](O)[C@@H]1O` [Fludarabine]: the half-inhibitory concentration (IC50) in assay [1] (Naegleria fowleri; CTG method, 72 h, duplicate twofold serial dilutions from 10 µM, mean ± SD; read-out: N. fowleri Mean IC50 (µM) ± SD) is 0.11 ± 0.03 µM; in assay [2] (Homo sapiens, A549, 72 h, read-out: A549 Mean IC50 (µM)) it was below 0.31 µM. Further, in assay [1] (SI = (IC50 A549)/(IC50 Amoeba)), the “Selectivity Index” value is recorded as below 2.83. For the same compound, the “potency against N. fowleri, in words” value in assay [1] (dose-response, CTG) was “nanomolar potency”.
`N#C/C(=C1/SC[C@@H](c2ccc(Cl)cc2Cl)S1)n1ccnc1` [Luliconazole]: the IC50 in assay [1] (setting [3]) was 0.02 ± 0.01 µM; in assay [2] (setting [4]) it was above 10 µM. Moreover, the “Selectivity Index” value in assay [1] (SI = (IC50 A549)/(IC50 Amoeba)) is at least 556; in assay [1] (SI = (IC50 A549)/(IC50 Amoeba); listed as luliconazole), at least 10. For the same compound, the “potency against N. fowleri, in words” value in assay [1] (dose-response, CTG) is reported as “nanomolar potency”.
As to `Oc1c(C(Nc2nc3ccccc3s2)c2ccc(OC(F)F)cc2)ccc2cccnc12` (stereo not drawn) [MMV019724], the results for the IC50 in assay [1] (setting [5]) and in assay [2] (setting [6]) were 6 ± 0.7 µM and 6.2 µM, respectively.
For the compound `Nc1nc(N)c2c(Sc3ccccc3)cccc2n1` [MMV021759], in assay [2] (setting [6]), the 50% inhibitory concentration (IC50) is above 10 µM.
Take `CCC(C)NCC(O)Cn1c2ccc(Cl)cc2c2cc(Cl)ccc21` (stereo not drawn) [MMV1578570]: the figures for the half-inhibitory concentration (IC50) in assay [1] (setting [5]) and in assay [2] (setting [6]) were 6.4 ± 0.9 µM and above 10 µM, respectively.
As to `O=c1cc(NCCCN[C@@H]2CCOc3c(Br)cc(Br)cc32)[nH]c2ccsc12` [MMV1578884], the half-inhibitory concentration (IC50) in assay [1] (setting [3]) was 0.08 ± 0.02 µM; in assay [2] (setting [4]) it was above 10 µM. In addition, the results for the “Selectivity Index” value in assay [1] (SI = (IC50 A549)/(IC50 Amoeba)) and in assay [1] (SI = (IC50 A549)/(IC50 Amoeba); listed as CRS-3123) were at least 128 and at least 10, respectively. For the same compound, the “potency against N. fowleri, in words” value in assay [1] (dose-response, CTG) was “nanomolar potency”.
Consider `O=C(Nc1cccc(C2=NCCN2)c1)c1ccc(-c2ccc(C(=O)Nc3cccc(C4=NCCN4)c3)cc2)cc1` [MMV1580853], for which the IC50 in assay [1] (setting [5]) is 4.95 ± 2.55 µM; in assay [2] (setting [6]), above 10 µM.
For the compound `Cc1cccc(C)c1C(=O)Nc1nc(-c2ccccn2)cc2ccccc12` [MMV1581558], the IC50 in assay [2] (setting [6]) is above 10 µM.
Turning to `Nc1nc(Nc2ccc3nc(-c4ccc(F)cc4)cc(N)c3c2)cc(-c2ccccc2)n1` [MMV1593541], the IC50 stood at 5.3 ± 0.6 µM in assay [1] (setting [5]) and 2.3 µM in assay [2] (setting [6]).
For the compound `CCOC(=O)Nc1cc(NC(C)CC(C)CN(CC)CC)c2nc(-c3ccccc3)c(-c3ccccc3)nc2n1` (stereo not drawn) [MMV1633967], the half-maximal inhibitory concentration (IC50) in assay [1] (setting [5]) is 8.2 ± 1 µM; in assay [2] (setting [6]), above 10 µM.
For `COc1ccc2sc3c(c2c1)NC(C)CNC3=O` (stereo not drawn) [MMV1782115], in that order: 9.35 ± 0.35 µM and 5.8 µM.
For `C=CCN(C(=O)OCc1ccc([N+](=O)[O-])cc1)C1CCN(CC[C@](C)(CN(C)S(=O)(=O)c2ccccc2)c2ccccc2)CC1` [MMV1782214], in that order: 7.9 µM and above 10 µM.
On to `C[C@H](c1cccc2ccccc12)N(C)Cc1ccccc1` [MMV1782221], for which the IC50 in assay [2] (setting [6]) was above 10 µM.
For the compound `CN1c2ccc(Cl)cc2N(c2ccccc2)C(=O)c2cn(Cc3ccc(CN4CCOCC4)cc3)nc21` [MMV1782222], the IC50 in assay [1] (setting [5]) is 5.4 µM; in assay [2] (setting [6]) it was above 10 µM.
On to `OCCC#Cc1nc(-c2ccc(F)cc2)c(-c2ccncc2)n1CCCc1ccccc1` [RWJ-67657], for which the 50% inhibitory concentration (IC50) in assay [1] (setting [3]) was 5.35 ± 0.35 µM; in assay [2] (setting [4]), above 10 µM. Besides, the “Selectivity Index” value in assay [1] (SI = (IC50 A549)/(IC50 Amoeba)) is recorded as at least 1.87.
Consider `C=C[C@]1(C)C[C@@H](OC(=O)CS[C@@H]2C[C@H]3CC[C@@H](C2)N3C)[C@]2(C)[C@H](C)CC[C@]3(CCC(=O)[C@H]32)[C@@H](C)[C@@H]1O` [Retapamulin], for which the IC50 in assay [1] (CTG method, 72 h, duplicate twofold serial dilutions from 10 µM, mean ± SD; listed as repatamulin; read-out: N. fowleri Mean IC50 (µM) ± SD) was at most 10 µM; in assay [1] (setting [5]), 1.12 ± 0.28 µM; in assay [2] (setting [4]), above 10 µM. Also, the “Selectivity Index” value in assay [1] (SI = (IC50 A549)/(IC50 Amoeba)) is recorded as at least 8.97.
In the case of `CC[C@@]1(O)C(=O)OCc2c1cc1n(c2=O)Cc2cc3c([N+](=O)[O-])cccc3nc2-1` [Rubitecan], the IC50 in assay [1] (setting [3]) stood at 2.3 ± 0.2 µM; in assay [2] (setting [4]) it was 0.47 µM. Also, the “Selectivity Index” value in assay [1] (SI = (IC50 A549)/(IC50 Amoeba)) is 0.20.
For `Cn1cncc1[C@@](N)(c1ccc(Cl)cc1)c1ccc2c(c1)c(-c1cccc(Cl)c1)cc(=O)n2C` [Tipifarnib], the IC50 came out at 1.23 ± 0.27 µM in assay [1] (Naegleria fowleri, 72 h, read-out: N. fowleri Mean IC50 (µM) ± SD) and 8 µM in assay [2] (setting [4]). In assay [1] (SI = (IC50 A549)/(IC50 Amoeba)), the “Selectivity Index” value amounted to 6.50.
Turning to `NC(=S)N/N=C/c1ncccc1N` [Triapine], the results for the IC50 in assay [1] (setting [3]) and in assay [2] (setting [4]) were 4 ± 0.1 µM and 3.5 µM, respectively. In addition, the “Selectivity Index” value in assay [1] (SI = (IC50 A549)/(IC50 Amoeba)) came to 0.88.

The record behind these values is PMC7344389, “Discovery of Anti-Amoebic Inhibitors from Screening the MMV Pandemic Response Box on Balamuthia mandrillaris, Naegleria fowleri, and Acanthamoeba castellanii” (Pathogens, 2020).
